Consider five compounds from patent publication US8357634B2, “N-alkoxycarboxamides and their use as microbiocides” (Syngenta Crop Protection LLC, priority 2009, dated 2013).

The subject of test [1] is Puccinia recondita. Description: Example B-6: Protective action against Puccinia recondita (brown rust) on wheat leaf segments. The test is classed as in vivo. Conditions: foliar, 192 h, 0.02% active ingredient, 8 days after inoculation, read-out: preventive fungicidal activity (inhibition). On the procedure: Protective Action Against Puccinia recondita (Brown Rust) on Wheat Wheat leaf segments were placed on agar in multiwell plates (24-well format) and sprayed with test solutions (0.02% active ingredient). After drying, the leaf disks were inoculated with a spore suspension of the fungus. After appropriate incubation the activity of a compound was assessed 8 days after inoculation as preventive fungicidal activity.

The subject of test [2] is Pyrenophora teres. The experiment in a line: Example B-8: Action against Pyrenophora teres (net blotch) on barley leaf segments. Conditions: foliar, 96 h, 0.02% active ingredient, 4 days after inoculation, read-out: preventive fungicidal activity (inhibition). The test is classed as in vivo. On the procedure:
Action Against Pyrenophora teres (Net Blotch) on Barley Barley leaf segments were placed on agar in multiwell plates (24-well format) and sprayed with test solutions (0.02% active ingredient). After drying, the leaf disks were inoculated with a spore suspension of the fungus. After appropriate incubation the activity of a compound was assessed 4 days after inoculation as preventive fungicidal activity.

Another test relates to Septoria tritici. Description: Example B-3: Action against Septoria tritici, fungal growth assay. In kind it is cell-based. Conditions: Zymoseptoria tritici; 0.002% active ingredient; PDB broth, 24° C., photometric after 72 hrs. On the procedure:
(§1) Action Against Septoria tritici—Fungal Growth Assay Conidia of the fungus from cryogenic storage were directly mixed into nutrient broth (PDB potato dextrose broth). After placing a (DMSO) solution of the test compounds (0.002% active ingredient) into a microtiter plate (96-well format) the nutrient broth containing the fungal spores was added. The test plates were incubated at 24° C. and the inhibition of growth was determined photometrically after 72 hrs. The activity of a compound was expressed as fungal growth inhibition (0=no growth inhibition, ratings of 80% to 99% mean good to very good inhibition, 100%=complete inhibition).

The subject of test [3] is Mycosphaerella arachidis (Cercospora arachidicola). The experiment in a line: Example B-2: Action against Mycosphaerella arachidis, fungal growth assay. The test is classed as cell-based. Conditions: 0.002% active ingredient, PDB broth, 24° C., photometric after 6-7 days. On the procedure:
as §1, with “Mycosphaerella arachidis (Early Leaf Spot of Groundnut; Cercospora arachidicola [fanamorph])—Fungal” for “Septoria tritici—Fungal”, “measured” for “determined”, “6-7 days.” for “72 hrs.”

Test [4] concerns Erysiphe graminis f. sp. tritici. The experiment in a line: Example B-5: Action against Erysiphe graminis f. sp. tritici (wheat powdery mildew), wheat leaf segments. The test is classed as in vivo. Conditions: Blumeria graminis, foliar, 168 h, 0.02% active ingredient, 7 days after inoculation, read-out: preventive fungicidal activity (inhibition). On the procedure: Action Against Erysiphe graminis f. sp. tritici (Wheat Powdery Mildew) Wheat leaf segments were placed on agar in multiwell plates (24-well format) and sprayed with test solutions (0.02% active ingredient). After drying, the leaf disks were inoculated with a spore suspension of the fungus. After appropriate incubation the activity of a compound was assessed 7 days after inoculation as preventive fungicidal activity.

For a further test, the system named is Botrvtis cinerea. The experiment in a line: Example B-1: Action against Botrytis cinerea, fungal growth assay. In kind it is cell-based. Conditions: 0.002% active ingredient, PDB broth, 24° C., photometric after 3-4 days. As for the experimental part: as §1, with “Action against Botrvtis cinerea—fungal growth assay” for “Action Against Septoria tritici—Fungal Growth Assay”, “storage was” for “storage were”, “was measured” for “was determined”, “after 3-4 days.” for “after 72 hrs.”

Test [5] concerns Puccinia recondita. Description: Example B-10: Puccinia recondita / wheat / leaf disc preventative (comparative). The test is classed as in vivo. Conditions: 8 dpi. As for the experimental part: Puccinia recondita/Wheat/Leaf Disc Preventative (Brown Rust) Wheat leaf segments were placed on agar in multiwell plates (24-well format) and sprayed with test solutions. After drying, the leaf disks were inoculated with a spore suspension of the fungus. After appropriate incubation the activity of a compound was assessed 8 dpi (days after inoculation) as preventive fungicidal activity.

The next test has as its system Alternaria solani. Description: Example B-13: Alternaria solani / tomato / leaf disc (comparative). In kind it is in vivo. Conditions: 4 dpi. On the procedure: Alternaria solani/Tomato/Leaf Disc (Early Blight) Tomato leaf disks were placed on water agar in multiwell plates (24-well format) and sprayed with test solutions. After drying, the leaf disks were inoculated with a spore suspension of the fungus. After appropriate incubation the activity of a compound was assessed 4 dpi (days after inoculation) as preventive fungicidal activity.

For test [6], the system named is Phaeosphaeria nodorum (Septoria nodorum). The experiment in a line: Example B-11: Phaeosphaeria nodorum / wheat / leaf disc preventative (comparative). In kind it is in vivo. Conditions: 4 dpi. As for the experimental part:
Phaeosphaeria nodorum (Septoria nodorum)/Wheat/Leaf Disc Preventative (Glume Blotch) Wheat leaf segments were placed on agar in a multiwell plate (24-well format) and sprayed with test solutions. After drying, the leaf disks were inoculated with a spore suspension of the fungus. After appropriate incubation the activity of a compound was assessed 4 dpi (days after inoculation) as preventive fungicidal activity.

The test system of test [7] is Blumeria graminis f. sp. tritici (Erysiphe graminis f. sp. tritici). Description: Example B-9: Blumeria graminis f. sp. tritici / wheat / leaf disc preventive (comparative). The test is classed as in vivo. Conditions: 4 dpi. On the procedure: Blumeria graminis f. sp. tritici (Erysiphe graminis f. sp. tritici)/Wheat/Leaf Disc Preventive (Powdery mildew on wheat) Wheat leaf segments were placed on agar in a multiwell plate (24-well format) and sprayed with test solutions. After drying, the leaf disks were inoculated with a spore suspension of the fungus. After appropriate incubation the activity of a compound was assessed 4 dpi (days after inoculation) as preventive fungicidal activity.

Test [8] relates to Mycosphaerella arachidis (Cercospora arachidicola). Description: Example B-15: Mycosphaerella arachidis / liquid culture (comparative). The test is classed as cell-based. Conditions: 24° C., photometric after 6-7 days, read-out: inhibition of growth. As for the experimental part:
Mycosphaerella arachidis (Cercospora arachidicola)/Liquid Culture (Early Leaf Spot) Conidia of the fungus from cryogenic storage were directly mixed into nutrient broth (PDB potato dextrose broth). After placing a (DMSO) solution of the test compounds into a microtiter plate (96-well format) the nutrient broth containing the fungal spores was added. The test plates were incubated at 24° C. and the inhibition of growth is measured photometrically after 6-7 days.

Test [9] has as its system Botryotinia fuckeliana (Botrytis cinerea). Description: Example B-14: Botryotinia fuckeliana (Botrytis cinerea) / liquid culture (comparative). In kind it is cell-based. Conditions: 24° C., photometric after 3-4 days, read-out: inhibition of growth. On the procedure: Botryotinia fuckeliana (Botrytis cinerea)/Liquid Culture (Gray Mould) Conidia of the fungus from cryogenic storage were directly mixed into nutrient broth. After placing a (DMSO) solution of the test compounds into a microtiter plate (96-well format) the nutrient broth containing the fungal spores was added. The test plates were incubated at 24° C. and the inhibition of growth is determined photometrically after 3-4 days.

In another test the test system is Gaeumannomyces graminis. The experiment in a line: Example B-17: Gaeumannomyces graminis / liquid culture (comparative). Conditions: 24 C, photometric after 2-3 days, read-out: inhibition of growth. In kind it is cell-based. As for the experimental part:
Gaeumannomyces graminis/Liquid Culture (Take-All of Cereals) Mycelial fragments of the fungus from cryogenic storage were directly mixed into nutrient broth (PDB potato dextrose broth). After placing a (DMSO) solution of the test compounds into a microtiter plate (96-well format) the nutrient broth containing the fungal spores was added. The test plates were incubated at 24 C and the inhibition of growth was determined photometrically after 2-3 days.

Test [10] deals with Pyrenophora teres. The experiment in a line: Example B-12: Pyrenophora teres / barley / leaf disc preventive (comparative). In kind it is in vivo. Conditions: 4 dpi. On the procedure:
Pyrenophora teres/Barley/Leaf Disc Preventive (Net Blotch) Barley leaf segments were placed on agar in a multiwell plate (24-well format) and sprayed with test solutions. After drying, the leaf disks were inoculated with a spore suspension of the fungus. After appropriate incubation the activity of a compound was assessed 4 dpi (days after inoculation) as preventive fungicidal activity.

Test [11] has as its system Mycosphaerella praminicola (Seotoria tritici). Description: Example B-16: Mycosphaerella graminicola (Septoria tritici) / liquid culture (comparative). In kind it is cell-based. Conditions: 96 h, 24° C., photometric after 4 days, read-out: inhibition of growth. On the procedure:
Mycosphaerella praminicola (Seotoria tritici)/Liquid Culture (Septoria Blotch) Conidia of the fungus from cryogenic storage were directly mixed into nutrient broth (PDB potato dextrose broth). After placing a (DMSO) solution of the test compounds into a microtiter plate (96-well format) the nutrient broth containing the fungal spores was added. The test plates were incubated at 24° C. and the inhibition of growth is measured photometrically after 4 days.

The test system of test [12] is Monopraphella nivalis (Microdochium nivale). Description: Example B-18: Monographella nivalis (Microdochium nivale) / liquid culture (comparative). In kind it is cell-based. Conditions: 24° C., photometric after 4-6 days, read-out: inhibition of growth. As for the experimental part:
Monopraphella nivalis (Microdochium nivale)/Liquid Culture (Foot Rot Cereals Conidia of the fungus from cryogenic storage were directly mixed into nutrient broth (PDB potato dextrose broth). After placing a (DMSO) solution of the test compounds into a microtiter plate (96-well format) the nutrient broth containing the fungal spores was added. The test plates were incubated at 24° C. and the inhibition of growth is measured photometrically after 4-6 days.

As for `CON(C(=O)c1cn(C)nc1C(F)F)C(C)c1ccc(Oc2ccc(Cl)cc2)cc1` (stereo not drawn) [Compound 1.010, 3-difluoromethyl-1-methyl-1H-pyrazole-4-carboxylic acid {1-[4-(4-chloro-phenoxy)-phenyl]-ethyl}-methoxy-amide], the inhibition at 0.02 % strength (with Puccinia recondita [1]; with Pyrenophora teres [2]; in [4]) was not below 80% in each case. Besides, the inhibition at 0.002 % strength (in the test on Septoria tritici; in test [3]; in the test on Botrvtis cinerea) was not below 80% each time.
With `CON(C(=O)c1cn(C)nc1C(F)F)C(C)c1cccc(-c2ccc(Cl)cc2)c1` (stereo not drawn) [Compound 1.019, 3-difluoromethyl-1-methyl-1H-pyrazole-4-carboxylic acid [1-(4′ chloro-biphenyl-3-yl)-ethyl]-methoxy-amide], the inhibition at 0.02 % strength (in the test on Puccinia recondita [1]; with Pyrenophora teres [2]; in [4]) was not below 80% each time. Besides, the inhibition at 0.002 % strength (in the test with Septoria tritici; in test [3]; in the test with Botrvtis cinerea) was not below 80% in each case.
In the case of `CON(C(=O)c1cn(C)nc1C(F)F)C(C)c1cccc(Oc2ccc(Cl)cc2)c1` (stereo not drawn) [Compound 1.021, 3-difluoromethyl-1-methyl-1H-pyrazole-4-carboxylic acid {1-[3-(4-chloro-phenoxy)-phenyl]-ethyl}-methoxy-amide], the inhibition at 0.02 % strength (with Puccinia recondita [1]; with Pyrenophora teres [2]; in test [4]) was not below 80% in each case. In addition, the inhibition at 0.002 % strength (in the test with Septoria tritici; in test [3]; in the test on Botrvtis cinerea) was not below 80% each time.
Regarding `CON(Cc1cccc(-c2ccc(Cl)cc2)c1)C(=O)c1cn(C)nc1C(F)F` [Compound 1.098, 3-difluoromethyl-1-methyl-1H-pyrazole-4-carboxylic acid (4′-chloro-biphenyl-3-ylmethyl)-methoxy-amide], the inhibition at 0.02 % strength (with Puccinia recondita [1]; with Pyrenophora teres [2]; in test [4]) was not below 80% in each case. Further, the inhibition at 0.002 % strength (with Septoria tritici; in test [3]; with Botrvtis cinerea) was not below 80% each time.
Take `CC(NC(=O)c1cn(C)nc1C(F)F)c1ccc(Cl)cc1Cl` (stereo not drawn) [No. 1.042 (prior art), reference compound]: the preventive fungicidal activity was determined as 0 in the test on Puccinia recondita [5] (20 ppm); 0 with Puccinia recondita [5] (60 ppm); 50 in the test with Puccinia recondita [5] (200 ppm); 0 with Alternaria solani (20 ppm); 20 in the test on Alternaria solani (60 ppm); 70 in the test with Alternaria solani (200 ppm). The preventive fungicidal activity turned out to be 0 in test [6] (20 ppm); 0 in test [6] (60 ppm); 70 in test [6] (200 ppm); 0 in test [7] (20 ppm); 50 in [7] (60 ppm); 100 in [7] (200 ppm). The preventive fungicidal activity in the test on Pyrenophora teres [10] (20 ppm) came to 50; in the test with Pyrenophora teres [10] (60 ppm), 90; in the test with Pyrenophora teres [10] (200 ppm) it was 100. Also, the inhibition at 6 ppm in [8] (6 ppm) turned out to be 0%; in the test on Gaeumannomyces graminis (6 ppm) it was 0%; in [11] (6 ppm), 20%; in test [12] (6 ppm), 0%. In addition, the inhibition at 20 ppm in test [8] (20 ppm) was 100%; in test [9] (20 ppm) it was 0%; in the test with Gaeumannomyces graminis (20 ppm) it was 0%; in test [11] (20 ppm) it was 100%; in test [12] (20 ppm) it was 0%. Further, the inhibition at 60 ppm in [8] (60 ppm) amounted to 100%; in [9] (60 ppm), 20%; in the test on Gaeumannomyces graminis (60 ppm), 0%; in [11] (60 ppm), 100%; in test [12] (60 ppm), 50%. Further, in test [9] (200 ppm), the inhibition at 200 ppm is 50%.
